Experimental data published in BigSolDB 2.1.

OC(CN1CCN(CC(O)(Cn2cncn2)c2ccc(F)cc2F)CC1)(Cn1cncn1)c1ccc(F)cc1F (stereo not given)
solubility (mole fraction)
Settings | 293.15 K | 298.15 K | 303.15 K | 308.15 K | 313.15 K
in ethanol | 0.000305 | 0.00036 | 0.000401 | 0.000463 | 0.000548
in n-hexane | 9.77e-07 | 1.17e-06 | 1.37e-06 | 1.62e-06 | 1.92e-06
in n-octanol | 6.23e-05 | 7.87e-05 | 0.000101 | 0.000126 | 0.00016
